Test results as given in the RepoRT retention time repository (doi:10.1016/j.foodchem.2021.129757).

Key:
Details in all cases: stereoisomer not certain
[1] = Other, Phenomenex Kinetex PFP, 100 × 4.6 mm, 2.6 µm, 35 °C, 1.5 mL/min, estimated dead time 0.71 min; A: water + 0.1% trifluoroacetic acid, pH 2; B: acetonitrile + 0.1% trifluoroacetic acid, pH 2; gradient (min/%B) 0/1 7/7.5 14/7.6 17/10 18.5/12 20/12.5 24/30 25/90 25.1/1 32/1
[2] = Other, Phenomenex Kinetex PFP, 100 × 4.6 mm, 5 µm, 45 °C, 0.6 mL/min, estimated dead time 1.8 min; A: water + 0.1% trifluoroacetic acid, pH 2; B: methanol; gradient (min/%B) 0/40 20/72 21/40
[3] = RP, Agilent ZORBAX RRHD Eclipse Plus C18, 50 × 2.1 mm, 1.8 µm, 30 °C, 0.4 mL/min, estimated dead time 0.28 min; A: water + 0.1% formic acid, pH 3; B: acetonitrile + 0.1% formic acid, pH 3; gradient (min/%B) 0/1 5/10 8/25 9.1/99 10/99 12/99
[4] = RP, Phenomenex Synergi Hydro-RP, 250 × 2 mm, 4 µm, 25 °C, 0.2 mL/min, estimated dead time 2.5 min; A: water + 0.1% formic acid, pH 3; B: acetonitrile + 0.1% formic acid, pH 3; gradient (min/%B) 0/0.5 7/0.5 12/12.5 25/16.3 47/35 48/65 50/65 50.1/0.5
[5] = RP, Agilent ZORBAX RRHD Eclipse Plus C18, 50 × 2.1 mm, 1.8 µm, 30 °C, 0.4 mL/min, estimated dead time 0.28 min; A: water + 0.1% formic acid, pH 3; B: acetonitrile + 0.1% formic acid, pH 3; gradient (min/%B) 0/1 5/10 8/25 9.1/99 10/99 12/1
[6] = RP, Merck LiChrospher RP-18, 250 × 4 mm, 5 µm, 35 °C, 0.3 mL/min, estimated dead time 6.7 min; A: water + 0.5% formic acid; B: acetonitrile + 0.5% formic acid; gradient (min/%B) 0/5 10/5 30/15 45/20 65/20 95/54 110/63 115/5 135/5
[7] = RP, Agilent ZORBAX Eclipse XDB-C18, 100 × 2.1 mm, 1.8 µm, 50 °C, 0.4 mL/min, estimated dead time 0.55 min; A: water + 0.1% formic acid, pH 3; B: methanol + 0.1% formic acid, pH 3; gradient (min/%B) 0/2 10/100 14.5/100 14.51/2 16.5/2
[8] = RP, Waters ACQUITY UPLC HSS T3, 100 × 2.1 mm, 1.8 µm, 30 °C, 0.4 mL/min, estimated dead time 0.55 min; A: water + 0.1% formic acid, pH 3; B: acetonitrile + 0.1% formic acid, pH 3; gradient (min/%B) 0/0 2/0 15/100 22/100 22.1/0 26/0
[9] = RP, Waters ACQUITY UPLC BEH Shield RP18, 150 × 2.1 mm, 1.7 µm, 40 °C, 0.4 mL/min, estimated dead time 0.83 min; A: water + 0.1% formic acid, pH 3; B: acetonitrile + 0.1% formic acid, pH 3; gradient (min/%B) 0/0 30/50 31/100 37/100 37.1/0
[10] = RP, Merck Supelco SUPELCOSIL LC-C18, 250 × 4.6 mm, 5 µm, 40 °C, 1 mL/min, estimated dead time 2.6 min; A: water + 0.1% trifluoroacetic acid, pH 2; B: acetonitrile + 0.1% trifluoroacetic acid, pH 2; gradient (min/%B) 0/5 45/35 47/75 49/35 50/5
[11] = RP, Waters Atlantis T3, 100 × 2.1 mm, 3 µm, 40 °C, 0.3 mL/min, estimated dead time 0.73 min; A: water + 0.1% trifluoroacetic acid, pH 2; B: acetonitrile + 0.1% trifluoroacetic acid, pH 2; gradient (min/%B) 0/10 1/10 6/40 7/50 8/50 14/70 16/80 20/10 25/10
[12] = RP, Waters ACQUITY UPLC BEH C18, 100 × 2.1 mm, 1.7 µm, 65 °C, 0.4 mL/min, estimated dead time 0.55 min; A: water + 0.1% formic acid, pH 3; B: 80% acetonitrile + 20% acetone + 0.1% formic acid, pH 3; gradient (min/%B) 0/0 5/100 5.5/0 6/0
[13] = RP, Phenomenex Luna Omega Polar C18, 100 × 2.1 mm, 1.6 µm, 40 °C, 0.5 mL/min, estimated dead time 0.44 min; A: water + 0.1% formic acid + 10 mM ammonium formate; B: acetonitrile; gradient (min/%B) 0/5 8/20 10/100 12/100 12.1/5 14/5
[14] = RP, Agilent InfinityLab Poroshell 120 EC-C18, 100 × 3 mm, 2.7 µm, 25 °C, 0.4 mL/min, estimated dead time 1.1 min; A: water + 0.1% formic acid, pH 3; B: acetonitrile + 0.1% formic acid, pH 3; gradient (min/%B) 0/5 10/25 20/40 24/90 25/90 26/5 30/5
[15] = RP, Phenomenex Luna C18, 150 × 4.6 mm, 3 µm, 25 °C, 0.5 mL/min, estimated dead time 3.2 min; A: water + 0.1% formic acid, pH 3; B: acetonitrile + 0.1% formic acid, pH 3; gradient (min/%B) 0/0 30/30 35/40 50/80 52/80 60/0 65/0
[16] = RP, Phenomenex Luna Omega Polar C18, 100 × 2.1 mm, 1.6 µm, 40 °C, 0.5 mL/min, estimated dead time 0.44 min; A: water + 0.5% formic acid; B: acetonitrile + 0.5% formic acid; gradient (min/%B) 0/5 3/50 3.1/100 5/100 5.1/5 7/5
[17] = RP, Waters ACQUITY UPLC BEH Shield RP18, 100 × 2.1 mm, 1.7 µm, 30 °C, 0.6 mL/min, estimated dead time 0.37 min; A: water + 0.1% formic acid, pH 3; B: acetonitrile + 0.1% formic acid, pH 3; gradient (min/%B) 0/0 2/0 7/10 22/95 22.1/0 26/0
[18] = RP, Phenomenex Kinetex EVO C18, 100 × 2.1 mm, 2.6 µm, 40 °C, 0.4 mL/min, estimated dead time 0.55 min; A: water + 0.2% formic acid; B: acetonitrile + 0.2% formic acid; gradient (min/%B) 0/5 0.5/5 7/95 8/95 8.5/5 12/5
[19] = RP, Phenomenex Synergi Hydro-RP, 150 × 2 mm, 4 µm, 30 °C, 0.5 mL/min, estimated dead time 0.6 min; A: water + 0.1% formic acid, pH 3; B: acetonitrile + 0.1% formic acid, pH 3; gradient (min/%B) 0/5 1/5 35/45 40/100 45/100
[20] = RP, 50 × 0.5 mm, 2.7 µm, 35 °C, 0.01 mL/min, estimated dead time 0.62 min; A: water + 0.1% formic acid, pH 3; B: acetonitrile + 0.1% formic acid, pH 3; gradient (min/%B) 0/5 12/95 14/95 16/5
[21] = RP, 100 × 0.5 mm, 2.7 µm, 45 °C, 0.015 mL/min, estimated dead time 0.83 min; A: water + 0.9% formic acid; B: acetonitrile + 0.9% formic acid; gradient (min/%B) 0/1 0.5/1 4/95 4.5/1 5/1
[22] = RP, Waters ACQUITY UPLC HSS T3, 100 × 2.1 mm, 50 °C; A: water + 0.1% formic acid, pH 3; B: 30% methanol + 70% acetonitrile + 0.1% formic acid, pH 3; gradient (min/%B) 0/5 1/8 2/15 3/40 4/70 4.5/100 5/100 6.4/100 6.6/5 6.8/5 7/5
[23] = RP, 150 × 2.1 mm, 2.6 µm, 40 °C, 0.35 mL/min, estimated dead time 0.94 min; A: water + 0.1% formic acid, pH 3; B: acetonitrile + 0.1% formic acid, pH 3; gradient (min/%B) 0/0 1/5 7/45 8.5/80 10.5/80 11/5 12/5
[24] = RP, 150 × 2.1 mm, 2.6 µm, 40 °C, 0.35 mL/min, estimated dead time 0.94 min; A: water + 0.1% formic acid, pH 3; B: acetonitrile + 0.1% formic acid, pH 3; gradient (min/%B) 0/0 1/0 12.5/100 14/100 14.2/0 15/0

SMILES | LC retention time [1] [min] | LC retention time [2] [min] | LC retention time [3] [min] | LC retention time [4] [min] | LC retention time [5] [min] | LC retention time [6] [min] | LC retention time [7] [min] | LC retention time [8] [min] | LC retention time [9] [min] | LC retention time [10] [min] | LC retention time [11] [min] | LC retention time [12] [min] | LC retention time [13] [min] | LC retention time [14] [min] | LC retention time [15] [min] | LC retention time [16] [min] | LC retention time [17] [min] | LC retention time [19] [min] | LC retention time [20] [min] | LC retention time [23] [min] | further results
O=C(O)c1ccccc1 [Benzoic acid] | 15.4 | 7.84 | 7.28 | 35.5 | 7.44 | 71.8 | 5.17 | – | – | – | – | – | – | – | – | – | – | – | – | – | –
O=C(CCc1ccc(O)cc1)c1c(O)cc(O)cc1OC1OC(CO)C(O)C(O)C1O (stereo not given) [Phloridzin] | 24.6 | – | – | 39.6 | – | 81.1 | – | 9.96 | 14.2 | 30.8 | 8.22 | – | – | – | – | – | – | – | – | – | –
O=C(O)CNC(=O)c1ccccc1 [Hippuric acid] | 7.15 | – | 3.49 | 20.2 | 4.73 | – | 3.29 | 8.4 | 5.38 | – | – | 1.86 | 3.2 | 6.09 | 15.1 | 2.01 | 6.13 | 8.54 | 2.59 | – | LC retention time [21]: 2.13 min; LC retention time [22]: 3.07 min; LC retention time [18]: 3.8 min
COc1cc(CC(=O)O)ccc1O [Homovanillic acid] | 18.8 | – | 2.83 | – | 5.94 | – | 3.69 | 8.67 | 10.3 | – | – | – | 4.17 | 6.83 | 16.4 | – | 16 | 10.2 | 3.03 | – | –
O=C(O)Cc1ccc(O)c(O)c1 [3,4-Dihydroxyphenylacetic acid] | 15.3 | 3.74 | 1.47 | 17 | 3.6 | – | 2.55 | – | – | – | – | – | – | – | – | – | – | – | – | 7.28 | LC retention time [24]: 7.07 min

Continued, in another order:

LC retention time [1] [min] | LC retention time [2] [min] | LC retention time [3] [min] | LC retention time [4] [min] | LC retention time [5] [min] | LC retention time [6] [min] | LC retention time [7] [min] | LC retention time [8] [min] | LC retention time [9] [min] | LC retention time [10] [min] | LC retention time [11] [min] | LC retention time [12] [min] | LC retention time [13] [min] | LC retention time [14] [min] | LC retention time [15] [min] | LC retention time [16] [min] | LC retention time [17] [min] | LC retention time [19] [min] | LC retention time [20] [min] | LC retention time [23] [min] | SMILES | further results
4.92 | 3.85 | 1.38 | 16.4 | 2.12 | 29.7 | 2.31 | 7.22 | 4.01 | 7.9 | 2.23 | 1.48 | 2.06 | 3.96 | 9.27 | 1.54 | 5.2 | 5.02 | 1.76 | – | O=C(O)c1ccc(O)c(O)c1 [Protocatechuic acid] | LC retention time [18]: 1.55 min
9.34 | – | 1.83 | 22.1 | 4.25 | 44.7 | 3.61 | 8.52 | 6.96 | 13.7 | 10 | 1.8 | 4.01 | 6.3 | 15.7 | 2.07 | 9.67 | – | 2.97 | 3.36 | COc1cc(C(=O)O)ccc1O [Vanillic acid] | LC retention time [22]: 3.2 min; LC retention time [24]: 3.6 min
22.3 | – | 7.99 | 33 | 7.6 | – | 4.97 | 9.44 | 11.1 | 23.3 | – | 2.1 | 7.22 | 9.78 | 25.1 | 2.53 | 12.5 | 15.2 | 4.25 | 2.79 | COc1cc(C=CC(=O)O)cc(OC)c1O [Sinapic acid] | LC retention time [24]: 2.81 min
